Results reported in patent US20230089247A1, “NOVEL COMPOUNDS SUITABLE FOR THE TREATMENT OF DYSLIPIDEMIA” (ZYDUS LIFESCIENCES LIMITED, priority 2019, published 2023).

Molecular target: PCSK9 (Homo sapiens, UniProt Q8NBP7)
Experiment: BODIPY-LDL uptake assay in HepG2 cells
Type: cell-based
Conditions: 5 μg/ml PCSK9, BODIPY-LDL
Protocol: BODIPY-LDL Uptake Assay in HepG2 Cells.
An established assay for PCSK9 inhibition features uptake of fluorescently labeled LDL nanoparticles (BODIPY-LDL) by hepatocytes and uptake of the BODIPY-containing particles is maximized in the absence of PCSK9.
In the LDL uptake assay, HepG2 cells were seeded at a density of 6×10^4 cells/well in a 96-well plate. After 24 h, the test compounds at various concentrations were pre-incubated with 5 μg/ml PCSK9 in 0.2% DMSO for 60 min prior to the addition on to the cells. After 16 h the medium was removed and 1 μg/ml BODIPY-LDL (Invitrogen) in serum free media was added and incubated for 5 h. Then the cells were washed twice with 0.25% BSA in PBS. Then the fluorescence of the cells in PBS was measured using TECAN multimode reader (Excitation: 485 nm and Emission: 520 nm). The readings were taken in triplicate and the final values were normalized with the protein concentration from respective wells. The wells without test compound containing external PCSK9 is considered as zero uptake and the one without PCSK9 was considered as 100% uptake. The percentage increase in LDL uptake for the test compounds were calculated using these values.

Chain of PCSK9 (Q8NBP7 153-692): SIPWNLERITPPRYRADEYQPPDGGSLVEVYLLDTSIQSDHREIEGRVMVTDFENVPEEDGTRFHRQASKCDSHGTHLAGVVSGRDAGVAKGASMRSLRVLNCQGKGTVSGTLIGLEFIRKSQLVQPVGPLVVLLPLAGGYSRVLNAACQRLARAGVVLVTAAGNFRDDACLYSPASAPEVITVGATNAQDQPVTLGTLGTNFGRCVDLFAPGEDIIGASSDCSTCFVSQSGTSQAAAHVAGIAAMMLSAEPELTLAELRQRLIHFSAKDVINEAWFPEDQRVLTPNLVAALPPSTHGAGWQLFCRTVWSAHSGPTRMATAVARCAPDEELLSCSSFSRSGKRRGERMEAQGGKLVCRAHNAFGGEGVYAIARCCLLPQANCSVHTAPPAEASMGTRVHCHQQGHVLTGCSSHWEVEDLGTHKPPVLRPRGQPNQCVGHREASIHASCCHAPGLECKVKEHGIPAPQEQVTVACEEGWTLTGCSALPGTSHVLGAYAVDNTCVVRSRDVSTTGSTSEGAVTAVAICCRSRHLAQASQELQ

Row | SMILES | % increase in LDL Uptake (1 μM test compound) [%] | % increase in LDL Uptake (10 μM test compound) [%] | % increase in LDL Uptake (30 μM test compound) [%]
1 | COc1ccc(C2CCN(C(=O)c3ccc(C4(O)COC4)cc3)CC2)cc1 [Example 27, (4-(3-hydroxyoxetan-3-yl)phenyl)(4-(4-methoxyphenyl)piperidin-1-yl)methanone] | 14 | 21 | 38
2 | COc1ccc(C2CCN(C(=O)c3ccc(C4(O)COC4)cc3)CC2)cc1F [Example 28, (4-(3-fluoro-4-methoxyphenyl)piperidin-1-yl)(4-(3-hydroxyoxetan-3-yl)phenyl)methanone] | 0 | 8 | 39
3 | Cc1ccc(C2CCN(C(=O)c3ccc(C4(O)COC4)cc3)CC2)cc1Cl [Example 29, (4-(3-chloro-4-methylphenyl)piperidin-1-yl)(4-(3-hydroxyoxetan-3-yl)phenyl)methanone] | 0 | 17 | 49
4 | O=C(c1ccc(C2(O)COC2)cc1)N1CCC(c2ccc(C(F)(F)F)c(Cl)c2)CC1 [Example 32, (4-(3-chloro-4-(trifluoromethyl)phenyl)piperidin-1-yl)(4-(3-hydroxyoxetan-3-yl)phenyl)methanone] | 12 | 30 | 33
5 | O=C(c1ccc(C2(O)COC2)cc1)N1CCC(c2ccccc2C(F)(F)F)CC1 [Example 33, (4-(3-hydroxyoxetan-3-yl)phenyl)(4-(2-(trifluoromethyl)phenyl)piperidin-1-yl)methanone] | 59 | 73 | 69
6 | CC(=O)OC1(c2ccc(C(=O)N3CCC(c4ccc(C(F)(F)F)cc4)CC3)cc2)COC1 [Example 36, 3-(4-(4-(4-(trifluoromethyl)phenyl)piperidine-1-carbonyl)phenyl) oxetan-3-yl acetate] | 0 | 9 | 17
7 | COC1(c2ccc(C(=O)N3CCC(c4cccc(C(F)(F)F)c4)CC3)cc2)COC1 [Example 37, (4-(3-methoxyoxetan-3-yl)phenyl)(4-(3-(trifluoromethyl)phenyl)piperidin-1-yl)methanone] | 31 | 65 | 36
8 | COC1(c2ccc(C(=O)N3CCC(c4ccc(C(F)(F)F)c(F)c4)CC3)cc2)COC1 [Example 38, (4-(3-fluoro-4-(trifluoromethyl)phenyl)piperidin-1-yl)(4-(3-methoxyoxetan-3-yl)phenyl)methanone] | 43 | 51 | 25
9 | CCOC1(c2ccc(C(=O)N3CCC(c4ccc(C(F)(F)F)c(F)c4)CC3)cc2)COC1 [Example 42, (4-(3-ethoxyoxetan-3-yl)phenyl)(4-(3-fluoro-4-(trifluoromethyl)phenyl)piperidin-1-yl)methanone] | 20 | 25 | 4
10 | CC(C)OC1(c2ccc(C(=O)N3CCC(c4ccc(C(F)(F)F)cc4)CC3)cc2)COC1 [Example 44, (4-(3-isopropoxyoxetan-3-yl)phenyl)(4-(4-(trifluoromethyl)phenyl)piperidin-1-yl)methanone] | 31 | 56 | 77
11 | CC(C)COC1(c2ccc(C(=O)N3CCC(c4ccc(C(F)(F)F)cc4)CC3)cc2)COC1 [Example 45, (4-(3-isobutoxyoxetan-3-yl)phenyl)(4-(4-(trifluoromethyl)phenyl)piperidin-1-yl)methanone] | 19 | 9 | 4
12 | O=C(c1ccc(C2(OCC3CC3)COC2)cc1)N1CCC(c2ccc(C(F)(F)F)cc2)CC1 [Example 46, (4-(3-(cyclopropylmethoxy)oxetan-3-yl)phenyl)(4-(4-(trifluoromethyl)phenyl)piperidin-1-yl)methanone] | 28 | 47 | 34
13 | O=C(c1cccc(C2(O)COC2)c1)N1CCCC(c2ccc(C(F)(F)F)cc2)C1 (stereo not drawn) [Example 48, (3-(3-hydroxyoxetan-3-yl)phenyl)(3-(4-(trifluoromethyl)phenyl)piperidin-1-yl)methanone] | 0 | 142 | 234
14 | O=C(c1cncc(C2(O)COC2)c1)N1CCC(c2ccc(C(F)(F)F)cc2)CC1 [Example 49, (5-(3-hydroxyoxetan-3-yl)pyridin-3-yl)(4-(4-(trifluoromethyl)phenyl)piperidin-1-yl)methanone] | 11 | 45 | 74
15 | COC1(c2cccc(C(=O)N3CCCC(c4ccc(C(F)(F)F)cc4)C3)c2)COC1 (stereo not drawn) [Example 51, (3-(3-methoxyoxetan-3-yl)phenyl)(3-(4-(trifluoromethyl)phenyl)piperidin-1-yl)methanone] | 11 | 79 | 131
16 | O=C(c1cccc(C2(O)COC2)c1)N1CC2CN(c3ccc(C(F)(F)F)cc3)CC2C1 (stereo not drawn) [Example 55, (3-(3-hydroxyoxetan-3-yl)phenyl)(5-(4-(trifluoromethyl)phenyl)hexahydropyrrolo[3,4-c]pyrrol-2(1H)-yl)methanone] | 82 | 320 | 287
17 | [2H]C([2H])([2H])OC1(c2cccc(C(=O)N3CCC(c4ccc(C(F)F)cc4)CC3)c2)COC1 [Example 59, (4-(4-(difluoromethyl)phenyl)piperidin-1-yl)(3-(3-(methoxy-d3)oxetan-3-yl)phenyl) methanone] | 0 | 0 | 37
18 | COC1(c2ccc(NC(=O)C3CCN(c4ccc(C(F)(F)F)cc4)CC3)cc2)COC1 [Example 60, N-(4-(3-methoxyoxetan-3-yl)phenyl)-1-(4-(trifluoromethyl)phenyl) piperidine-4-carboxamide] | 50 | 7 | 0
19 | O=C(c1ccc(C2(O)CS(=O)(=O)C2)cc1)N1CC2CN(c3ccc(C(F)(F)F)cc3)CC2C1 (stereo not drawn) [Example 61, (4-(3-hydroxy-1,1-dioxidothietan-3-yl)phenyl)(5-(4-(trifluoromethyl)phenyl)hexahydropyrrolo[3,4-c]pyrrol-2(1H)-yl)methanone] | 13 | 32 | 37
20 | O=C(c1ccc(C2(O)CS(=O)(=O)C2)cc1)N1CCC(c2ccc(C(F)(F)F)cc2)CC1 [Example 62, (4-(3-hydroxy-1,1-dioxidothietan-3-yl)phenyl)(4-(4-(trifluoromethyl)phenyl)piperidin-1-yl)methanone] | 18 | 10 | 17
21 | O=C(c1ccc(C2(O)COC2)cc1)N1CCC(c2ccc(O)cc2)CC1 [Example 63, (4-(3-hydroxyoxetan-3-yl)phenyl)(4-(4-hydroxyphenyl)piperidin-1-yl)methanone] | 12 | 18 | 0
22 | O=C(c1ccc(C2(O)COC2)cc1)N1CCC(c2ccccc2)CC1 [Example 64, (4-(3-hydroxyoxetan-3-yl)phenyl)(4-phenylpiperidin-1-yl) methanone] | 0 | 13 | 6
23 | COC1(c2cccc(C(=O)N3CCC(c4ccc(C(F)F)cc4)CC3)c2)COC1 [Example 65, (4-(4-(difluoromethyl)phenyl)piperidin-1-yl)(3-(3-methoxyoxetan-3-yl)phenyl)methanone] | 0 | 9 | 66
24 | COc1cc(C2CN(c3ccc(C(F)(F)F)cc3)CCN2C(=O)c2ccc(C3(O)COC3)cc2)ccn1 (stereo not drawn) [Example 67, (4-(3-hydroxyoxetan-3-yl)phenyl)(2-(2-methoxypyridin-4-yl)-4-(4-(trifluoromethyl)phenyl)piperazin-1-yl)methanone] | 26 | 27 | 11
25 | COC1(c2ccc(C(=O)N3CCC(c4ccc(C(F)F)cc4)CC3)cc2)COC1 [Example 68, (4-(4-(difluoromethyl)phenyl)piperidin-1-yl)(4-(3-methoxyoxetan-3-yl)phenyl)methanone] | 0 | 2 | 51
26 | O=C(c1ccc(C2(O)COC2)cc1)N1CCC(c2ccc(C(F)F)cc2)CC1 [Example 69, (4-(4-(difluoromethyl)phenyl)piperidin-1-yl)(4-(3-hydroxyoxetan-3-yl)phenyl)methanone] | 0 | 0 | 76
27 | CC#CCOC1(c2ccc(C(=O)N3CCC(c4ccc(C(F)(F)F)cc4)CC3)cc2)COC1 [Example 70, (4-(3-(but-2-yn-1-yloxy)oxetan-3-yl)phenyl)(4-(4-(trifluoromethyl)phenyl)piperidin-1-yl)methanone] | 0 | 26 | 14
